Results from patent publication US5567692A, “9-[(substituted glycyl) amido)]-6-demethyl-6-deoxytetracyclines” (priority 1995, dated 1996).
In brackets after ≈: the same amount, converted by molar mass. Counter-ions that a name gives are not always drawn. Like-named read-outs stand apart in the source and are kept apart here.

Legend:
[1] = system: X. maltophilia NEMC 87210; experiment: MIC, agar dilution; assay type: cell-based
E. coli PRP1 Tet A = experiment: microbe, parasite or virus in culture; assay type: cell-based
[2] = system: Ps. aeruginosa ATCC 27853; experiment: MIC, agar dilution; assay type: cell-based; details: Ps. aeruginosa ATCC 27853
S. aureus IVES 2943 = experiment: MIC, agar dilution; assay type: cell-based
E. coli J3272 Tet C = experiment: microbe, parasite or virus in culture; assay type: cell-based
[3] = system: E. coli UBMS 89-2 Tet sens.; experiment: MIC, agar dilution; assay type: cell-based
[4] = system: S. aureus UBMS 90-1 Tet M; experiment: microbe, parasite or virus in culture; assay type: cell-based; details: Staphylococcus aureus, UBMS901TETM, 18 h
S. aureus ROSE (MP) = experiment: MIC, agar dilution; assay type: cell-based
E. coli UBMS 90-5 = experiment: microbe, parasite or virus in culture; assay type: cell-based; details: E. coli UBMS 90-5
S. marcescens FPOR 8733 = experiment: MIC, agar dilution; assay type: cell-based
[5] = system: S. aureus UBMS 88-7 Tet K; experiment: microbe, parasite or virus in culture; assay type: cell-based
[6] = system: E. coli MC 4100 TNIOC Tet B; experiment: microbe, parasite or virus in culture; assay type: cell-based
E. coli #311 (MP) = experiment: MIC, agar dilution; assay type: cell-based; details: Escherichia coli, 18 h
S. aureus NEMC 8769 = experiment: MIC, agar dilution; assay type: cell-based
E. coli UBMS 90-4 Tet M = experiment: microbe, parasite or virus in culture; assay type: cell-based; details: Escherichia coli, UBMS904TETM, 18 h
[7] = system: S. hemolyticus AVHAH 88-3; experiment: MIC, agar dilution; assay type: cell-based
[8] = system: Staphylococcus aureus strain Smith (tetracycline sensitive); experiment: Acute lethal infection in mice, S. aureus Smith; assay type: in vivo; details: for ED50: mice, S. aureus Smith (Sens), 7 day survival; for in vivo activity (in words): tested intravenously against the minocycline sensitive organism S. aureus Smith
S. aureus IVES 1983 = experiment: MIC, agar dilution; assay type: cell-based
E. coli J2175 = experiment: MIC, agar dilution; assay type: cell-based
E. coli UBMS 88-1 Tet B = experiment: microbe, parasite or virus in culture; assay type: cell-based
[9] = system: S. aureus UBMS 90-2 Tet M; experiment: microbe, parasite or virus in culture; assay type: cell-based; details: Staphylococcus aureus, UBMS902TETM, 18 h
E. faecalis ATCC 29212 = experiment: MIC, agar dilution; assay type: cell-based; details: E. faecalis ATCC 29212
Enterococcus 12201 = experiment: MIC, agar dilution; assay type: cell-based
S. aureus ATCC 29213 = experiment: MIC, agar dilution; assay type: cell-based; details: Staphylococcus aureus, ATCC29213, 18 h, S. aureus ATCC 29213; read-out: MIC
E. coli BAJ9003 IMP MUT = experiment: microbe, parasite or virus in culture; assay type: cell-based; details: E. coli BAJ9003 IMP MUT
S. aureus UBMS 90-3 = experiment: MIC, agar dilution; assay type: cell-based; details: S. aureus UBMS 90-3
S. aureus UBMS 88-4 = experiment: MIC, agar dilution; assay type: cell-based
S. aureus SMITH (MP) = experiment: MIC, agar dilution; assay type: cell-based
[10] = system: S. aureus UBMS 88-5 Tet M; experiment: microbe, parasite or virus in culture; assay type: cell-based; details: Staphylococcus aureus, UBMS885TETM, 18 h
E. coli ATCC 25922 = experiment: MIC, agar dilution; assay type: cell-based
E. coli UBMS 89-1 Tet M = experiment: microbe, parasite or virus in culture; assay type: cell-based
E. coli J3272 Tet D = experiment: microbe, parasite or virus in culture; assay type: cell-based; details: monohydrochloride
[11] = Escherichia coli, PRP1TETA, 18 h
[12] = Pseudomonas aeruginosa, ATCC27853, 18 h, read-out: MIC
[13] = Escherichia coli, J3272TETC, 18 h
[14] = Staphylococcus aureus, 18 h, read-out: MIC
[15] = Escherichia coli, UBMS905, 18 h, read-out: MIC
[16] = Serratia marcescens, FPOR8733, 18 h, read-out: MIC
[17] = Staphylococcus aureus, UBMS887TETK, 18 h
[18] = Staphylococcus aureus, IVES1983, 18 h
[19] = Escherichia coli, 18 h, read-out: MIC
[20] = Escherichia coli, UBMS881TETB, 18 h
[21] = Staphylococcus aureus, NEMC8769, 18 h, read-out: MIC

CN(C)[C@@H]1C(O)=C(C(N)=O)C(=O)[C@@]2(O)C(O)=C3C(=O)c4c(ccc(NC(=O)CN5CCCC5)c4O)CC3CC12 (stereo partly drawn) [D, [7S-(7alpha,10aalpha)]-N-[9-(Aminocarbonyl)-7-(dimethylamino)-5,5a,6,6a,7-10,10a,12-octahydro-1,8,10a,11-tetrahydroxy-10,12-dioxo-2-naphthacenyl]-1-pyrrolidineacetamide dihydrochloride]
MIC ([1]; Stenotrophomonas maltophilia, NEMC87210, 18 h): 1 µg/mL | MIC (E. coli PRP1 Tet A; [11]): 0.25 µg/mL | MIC [2, 12]: 16 µg/mL | MIC (S. aureus IVES 2943; Staphylococcus aureus, IVES2943, 18 h): 1 µg/mL | MIC (E. coli J3272 Tet C; [13]): 0.25 µg/mL | MIC ([3]; Escherichia coli, 18 h): 0.25 µg/mL | MIC [4]: 0.25 µg/mL | MIC (S. aureus ROSE (MP); [14]): 2 µg/mL | MIC (E. coli UBMS 90-5; [15]): 0.25 µg/mL | MIC (S. marcescens FPOR 8733; [16]): 2 µg/mL | MIC [5, 17]: 0.5 µg/mL | MIC ([6]; Escherichia coli, 18 h): 0.25 µg/mL | MIC (E. coli #311 (MP)): 0.25 µg/mL | MIC (S. aureus NEMC 8769; Staphylococcus aureus, NEMC8769, 18 h): 0.06 µg/mL | MIC (E. coli UBMS 90-4 Tet M): 0.25 µg/mL | MIC ([7]; Streptococcus pyogenes, AVHAH883, 18 h): 0.25 µg/mL | ED50 ([8]; Staphylococcus aureus, iv, 168 h, Intraveneous, read-out: ED50): 1 to 2 mg/kg | ED50 ([8]; Staphylococcus aureus, po, 168 h, Oral, read-out: ED50): > 16 mg/kg | in vivo activity (in words) [8]: very good in vivo activity | MIC (S. aureus IVES 1983; [18]): 1 µg/mL | MIC (E. coli J2175; [19]): 0.25 µg/mL | MIC (E. coli UBMS 88-1 Tet B; [20]): 0.25 µg/mL | MIC [9]: 0.25 µg/mL

CN(C)CC(=O)Nc1ccc2c(c1O)C(=O)C1=C(O)[C@]3(O)C(=O)C(C(N)=O)=C(O)[C@@H](N(C)C)C3CC1C2 (stereo partly drawn) [BB, [4S-(4alpha,12aalpha)]-4-(Dimethylamino)-9-[[(dimethylamino)acetyl]amino]-1,4,4a,5,5a,6,11,12a-octahydro-3,10,12,12a-tetrahydroxy-1,11-dioxo-2-naphthacenecarboxamide]
MIC (E. faecalis ATCC 29212): 0.06 µg/mL (≈ 0.117 µM) | MIC ([1]; X. maltophilia NEMC 87210): 1 µg/mL (≈ 1.94 µM) | MIC (E. coli PRP1 Tet A): 0.5 µg/mL (≈ 0.972 µM) | MIC [2]: 8 µg/mL (≈ 15.5 µM) | MIC (S. aureus IVES 2943; S. aureus IVES 2943): 0.5 µg/mL (≈ 0.972 µM) | MIC (E. coli J3272 Tet C): 0.25 µg/mL (≈ 0.486 µM) | MIC ([3]; E. coli UBMS 89-2 Tet sens.): 0.25 µg/mL (≈ 0.486 µM) | MIC (S. aureus ROSE (MP); Staphylococcus aureus, 18 h): 2 µg/mL (≈ 3.89 µM) | MIC (Enterococcus 12201; Enterococcus 12201): 0.06 µg/mL (≈ 0.117 µM) | MIC (S. aureus ATCC 29213): 0.3 µg/mL (≈ 0.583 µM) | MIC (S. marcescens FPOR 8733; Serratia marcescens, FPOR8733, 18 h): 2 µg/mL (≈ 3.89 µM) | MIC [5]: 0.5 µg/mL (≈ 0.972 µM) | MIC (E. coli BAJ9003 IMP MUT): no growth | MIC ([6]; E. coli MC 4100 TNIOC Tet B): 0.25 µg/mL (≈ 0.486 µM) | MIC (S. aureus UBMS 90-3): 0.06 µg/mL (≈ 0.117 µM) | MIC (S. aureus NEMC 8769; [21]): < 0.015 µg/mL | MIC (S. aureus UBMS 88-4; S. aureus UBMS 88-4): 0.06 µg/mL (≈ 0.117 µM) | MIC (S. aureus SMITH (MP); S. aureus SMITH (MP)): 0.06 µg/mL (≈ 0.117 µM) | ED50 ([8]; Intraveneous, 10080 min): 0.5 to 1 mg/kg | ED50 ([8]; Oral, 10080 min): 8 to 16 mg/kg | in vivo activity (in words) [8]: very good in vivo activity | MIC (S. aureus IVES 1983; Staphylococcus aureus, IVES1983, 18 h, S. aureus IVES 1983, read-out: MIC): 0.5 µg/mL (≈ 0.972 µM) | MIC (E. coli J2175): 0.25 µg/mL (≈ 0.486 µM) | MIC (E. coli UBMS 88-1 Tet B; E. coli UBMS 88-1 Tet B): 0.25 µg/mL (≈ 0.486 µM)

CC(C)CNCC(=O)Nc1ccc2c(c1O)C(=O)C1=C(O)[C@]3(O)C(=O)C(C(N)=O)=C(O)[C@@H](N(C)C)C3CC1C2 (stereo partly drawn) [M, [4S-(4alpha,12aalpha)]-4-(Dimethylamino)-1,4,4a,5,5a,6,11,12a-octahydro-3,10,12,12a-tetrahydroxy-9-[[[(2-methylpropyl)amino]acetyl]amino]-1,11-dioxo-2-naphthacenecarboxamide dihydrochloride]
MIC ([1]; Stenotrophomonas maltophilia, NEMC87210, 18 h, X. maltophilia NEMC 87210, read-out: MIC): 2 µg/mL | MIC (E. coli PRP1 Tet A; [11]): 1 µg/mL | MIC [2, 12]: 32 µg/mL | MIC (S. aureus IVES 2943; Staphylococcus aureus, IVES2943, 18 h, S. aureus IVES 2943, read-out: MIC): 4 µg/mL | MIC (E. coli J3272 Tet C; [13]): 1 µg/mL | MIC ([3]; Escherichia coli, 18 h): 1 µg/mL | MIC [4]: 0.5 µg/mL | MIC (S. aureus ROSE (MP); [14]): 8 µg/mL | MIC (E. coli UBMS 90-5; [15]): 1 µg/mL | MIC (Enterococcus 12201; Enterococcus, 12201, 18 h): 0.5 µg/mL | MIC (S. marcescens FPOR 8733; [16]): 8 µg/mL | MIC [5, 17]: 2 µg/mL | MIC ([6]; Escherichia coli, 18 h): 1 µg/mL | MIC [10]: 0.5 µg/mL | MIC (E. coli #311 (MP)): 1 µg/mL | MIC (S. aureus NEMC 8769; [21]): 8 µg/mL | MIC (E. coli ATCC 25922; Escherichia coli, ATCC25922, 18 h): 0.5 µg/mL | MIC (E. coli UBMS 89-1 Tet M; Escherichia coli, UBMS891TETM, 18 h): 0.5 µg/mL | MIC (S. aureus UBMS 88-4; Staphylococcus aureus, UBMS884, 18 h): 0.5 µg/mL | MIC (E. coli UBMS 90-4 Tet M): 0.5 µg/mL | MIC ([7]; Streptococcus pyogenes, AVHAH883, 18 h, S. hemolyticus AVHAH 88-3, read-out: MIC): 2 µg/mL | MIC (S. aureus SMITH (MP); Staphylococcus aureus, 18 h): 0.5 µg/mL | MIC (S. aureus IVES 1983; [18]): 2 µg/mL | MIC (E. coli J2175; [19]): 1 µg/mL | MIC (E. coli UBMS 88-1 Tet B; [20]): 1 µg/mL | MIC [9]: 0.5 µg/mL

CN(C)CC(=O)Nc1ccc2c(c1O)C(=O)C1=C(O)[C@]3(O)C(=O)C(C(N)=O)=C(O)[C@@H](N(C)C)C3CC1C2 (stereo partly drawn) [DD, [4S-(4alpha,12aalpha)]-4-(Dimethylamino)-9-[[(dimethylamino)acetyl]amino]-1,4,4a,5,5a,6,11,12a-octahydro-3,10,12,12a-tetrahydroxy-1,11-dioxo-2-naphthacenecarboxamide monohydrochloride]
MIC (E. faecalis ATCC 29212; monohydrochloride): 0.06 µg/mL | MIC ([1]; X. maltophilia NEMC 87210, monohydrochloride): 2 µg/mL | MIC (E. coli PRP1 Tet A; monohydrochloride): 1 µg/mL | MIC ([2]; monohydrochloride): 8 µg/mL | MIC (S. aureus IVES 2943; S. aureus IVES 2943, monohydrochloride): 1 µg/mL | MIC (E. coli J3272 Tet D): 0.25 µg/mL | MIC (E. coli J3272 Tet C; monohydrochloride): 1 µg/mL | MIC (S. aureus ROSE (MP); monohydrochloride): 4 µg/mL | MIC (E. coli UBMS 90-5): 0.25 µg/mL | MIC (S. marcescens FPOR 8733): 4 µg/mL | MIC ([5]; monohydrochloride): 1 µg/mL | MIC (S. aureus UBMS 90-3; monohydrochloride): 0.06 µg/mL | MIC (E. coli #311 (MP)): 0.25 µg/mL | MIC (S. aureus NEMC 8769; monohydrochloride): 0.03 µg/mL | MIC (E. coli ATCC 25922; monohydrochloride): 0.25 µg/mL | MIC (E. coli UBMS 89-1 Tet M; monohydrochloride): 0.5 µg/mL | MIC ([7]; S. hemolyticus AVHAH 88-3, monohydrochloride): 0.25 µg/mL | ED50 ([8]; Intraveneous, monohydrochloride, 10080 min): 0.67 mg/kg | ED50 ([8]; Oral, monohydrochloride, 10080 min): 12 mg/kg | in vivo activity (in words) [8]: very good in vivo activity | MIC (S. aureus IVES 1983; S. aureus IVES 1983, monohydrochloride): 1 µg/mL
